From US20080107761A1, “Composition and Method For Promoting the Production of and/or Enhancing the Activity of Fibulin-5” (Shiseido Company, Ltd., priority 2004, published 2008)

System: fibulin-5 mRNA
Assay: Expression and determination of fibulin-5 mRNA in human fibroblasts by quantitative PCR
Format: cell-based
Conditions: for Effect on fibulin-5 production in human fibroblasts (% of the control) Mean ± SD: 24 hours culture, relative to no-addition control; for Effect of promoting fibulin-5 production (in words): summary of Table 1
Experimental: Adhering cells were suspended by a trypsin-ethylenediaminetetraacetic acid (EDTA) treatment and then filtered to obtain a homogeneous cell suspension. Cells were collected by centrifugation and suspended at 0.2x10^6 cells/ml. Three ml each of the cell suspension was inoculated to a 6-well plate. After the cells adhered, the medium was replaced with a 0.25% by weight FBS-containing DMEM. After culturing at 37° C for 24 hours, the medium was replaced with 0.25% by weight FBS-containing DMEM containing either of a few dozen of pharmaceutical agents. After culturing for further 24 hours, the culture supernatant was removed, and mRNA was recovered by the ABI PRISM 6100 Nucleic Acid PrepStation Kit (Applied Biosystems). […] The primers and probes used in this Example are as follows: The determination of mRNA expression was conducted in three groups, and was expressed in percentage relative to the mean of the no-addition control group.

| SMILES | Effect on fibulin-5 production in human fibroblasts (% of the control) Mean ± SD (25 μg/ml (0.0025% by weight)) | Effect on fibulin-5 production in human fibroblasts (% of the control) Mean ± SD (250 μg/ml (0.025% by weight)) | Effect of promoting fibulin-5 production (in words) |
| --- | --- | --- | --- |
| O=C(O)[C@@H]1C[C@@H](O)CN1 [L-hydroxyproline, (2S,4R)-4-hydroxypyrrolidine-2-carboxylic acid] | 110.1 ± 11.0 % of the control | 147.3 ± 8.9 % of the control | significant effect of promoting fibulin-5 production |
| O=P(O)(O)O[C@H]1[C@H](OP(=O)(O)O)[C@@H](OP(=O)(O)O)[C@H](OP(=O)(O)O)[C@@H](OP(=O)(O)O)[C@H]1OP(=O)(O)O [phytic acid, myo-inositol hexakis- phosphate] | 93.0 ± 24.4 % of the control | 126.1 ± 16.4 % of the control | significant effect of promoting fibulin-5 production |
